Assay results as given in patent US20120195842A1, “ENHANCED PHOTOSTABILITY OF SUNCARE CO[…]” (priority 2008, published 2012).

Assay: Photostability of avobenzone in thin films of sunscreen compositions irradiated with solar simulated UVR
Format: physicochemical
Details: menthyl anthranilate at all levels, composition with octisalate, homosalate and avobenzone, up to 4 hours
Description: To investigate its stabilizing effect of menthyl anthranilate on the photostability of avobenzone, menthyl anthranilate (meradimate) was incorporated into a fixed sunscreen composition at different levels. Thin film strips of each composition were then irradiated with solar simulated UVR for up to 4 hours as described in detail below. The compositions were then analyzed for the presence of avobenzone after a given period of time. • Formula compositions were prepared as follows: […]
Assessment of avobenzone's photostability was performed on four different compositions that differed only in the amount of menthyl anthranilate that were used in the formulation.
The photostability of avobenzone in each emulsion was assessed after exposure to 80 joules of UV radiation (which corresponds to about 4 hours of outside sun exposure at noon in Memphis, Tenn. in June) using the method described below. […] Even 1% menthyl anthranilate improved avobenzone's photostability by approximately 6% after 2 hours and by 17% after 4 hours of exposure. […]
Avobenzone's photostability was assessed by spreading known weights (14-18 mg) of emulsions onto glass microscope slides at an application density of about 2 mg/cm^2. […] UVR flux was measured using an OL 754 Spectroradiometer (Optronics laboratories, Inc., Orlando, Fla.) with an 8 inch integrating sphere. […]

CC1CCC(C(C)C)C(OC(=O)c2ccccc2N)C1 (stereo not shown) [menthyl anthranilate]
effect on photostability of avobenzone to ultraviolet radiation (UVR): improves photostability of avobenzone
